Assays:
[1] = test system: CCRF-CEM; assay: NCI-60 SRB growth inhibition, one-dose and five-dose; format: cell-based; conditions: Homo sapiens
[2] = test system: HL-60(TB); assay: cells; format: cell-based; conditions: Homo sapiens
[3] = test system: K-562; assay: NCI-60 SRB growth inhibition, one-dose and five-dose; format: cell-based; conditions: Homo sapiens
[4] = test system: MOLT-4; assay: as above; format: cell-based; conditions: Homo sapiens
[5] = test system: SR; assay: as above; format: cell-based; conditions: Homo sapiens
[6] = test system: A549/ATCC; assay: as above; format: cell-based; conditions: Homo sapiens
[7] = test system: EKVX; assay: as above; format: cell-based; conditions: Homo sapiens
[8] = test system: HOP-62; assay: as above; format: cell-based; conditions: Homo sapiens
[9] = test system: HOP-92; assay: as above; format: cell-based; conditions: Homo sapiens
[10] = test system: NCI-H226; assay: as above; format: cell-based; conditions: Homo sapiens
[11] = test system: NCI-H522; assay: as above; format: cell-based; conditions: Homo sapiens
[12] = test system: COLO 205; assay: as above; format: cell-based; conditions: Homo sapiens
[13] = test system: HCC-2998; assay: as above; format: cell-based; conditions: Homo sapiens
[14] = test system: HCT-116; assay: as above; format: cell-based; conditions: Homo sapiens
[15] = test system: HCT-15; assay: as above; format: cell-based; conditions: Homo sapiens
[16] = test system: KM12; assay: as above; format: cell-based; conditions: Homo sapiens
[17] = test system: SF-268; assay: as above; format: cell-based; conditions: Homo sapiens
[18] = test system: SF-539; assay: as above; format: cell-based; conditions: Homo sapiens
[19] = test system: SNB-19; assay: as above; format: cell-based; conditions: Homo sapiens
[20] = test system: U251; assay: as above; format: cell-based; conditions: Homo sapiens
[21] = test system: LOX IMVI; assay: as above; format: cell-based; conditions: Homo sapiens
[22] = test system: MALME-3M; assay: as above; format: cell-based; conditions: Homo sapiens
[23] = test system: MDA-MB-435; assay: as above; format: cell-based; conditions: Homo sapiens
[24] = test system: SK-MEL-2; assay: as above; format: cell-based; conditions: Homo sapiens
[25] = test system: SK-MEL-28; assay: as above; format: cell-based; conditions: Homo sapiens
[26] = test system: SK-MEL-5; assay: as above; format: cell-based; conditions: Homo sapiens
[27] = test system: IGROV1; assay: as above; format: cell-based; conditions: Homo sapiens
[28] = test system: OVCAR-3; assay: as above; format: cell-based; conditions: Homo sapiens
[29] = test system: OVCAR-4; assay: as above; format: cell-based; conditions: Homo sapiens
[30] = test system: OVCAR-5; assay: as above; format: cell-based; conditions: Homo sapiens
[31] = test system: OVCAR-8; assay: as above; format: cell-based; conditions: Homo sapiens
[32] = test system: A498; assay: as above; format: cell-based; conditions: Homo sapiens
[33] = test system: CAKI-1; assay: as above; format: cell-based; conditions: Homo sapiens
[34] = test system: RXF 393; assay: as above; format: cell-based; conditions: Homo sapiens
[35] = test system: PC-3; assay: as above; format: cell-based; conditions: Homo sapiens
[36] = test system: DU-145; assay: as above; format: cell-based; conditions: Homo sapiens
[37] = test system: MCF7; assay: as above; format: cell-based; conditions: Homo sapiens
[38] = test system: HS 578 T; assay: as above; format: cell-based; conditions: Homo sapiens
[39] = test system: BT-549; assay: as above; format: cell-based; conditions: Homo sapiens
[40] = test system: T-47D; assay: as above; format: cell-based; conditions: Homo sapiens, T47D
[41] = test system: MDA-MB-468; assay: as above; format: cell-based; conditions: Homo sapiens
[42] = test system: NCI 60-cell line panel (full panel); assay: NCI-60 SRB growth inhibition, full panel mean / MG-MID; format: cell-based, human
[43] = read-out: percent growth inhibition

CC(=O)Nc1ccc(/C=C/C(=O)c2cccc(NCc3ccc(CO)cc3)c2)cc1 [Compound 5j, (E)-N-(4–(3-(3-((4-(hydroxymethyl)benzyl)amino)phenyl)-3-oxoprop-1-en-1-yl)phenyl) acetamide]
GI50 [1]: 8.8 µM | inhibition at 10 µM [1, 43]: 121% | GI50 ([2]; HL-60): 11.6 µM | inhibition at 10 µM ([2]; HL-60, read-out: percent growth inhibition): 138% | GI50 ([3]; K562): 3.43 µM | inhibition at 10 µM ([3]; K562, read-out: percent growth inhibition): 104% | GI50 ([4]; MOLT-4): 2.85 µM | inhibition at 10 µM ([4]; MOLT-4, read-out: percent growth inhibition): 120% | GI50 [5]: 2.61 µM | GI50 ([6]; A549): 17.2 µM | inhibition at 10 µM ([6]; A549, read-out: percent growth inhibition): 34.3% | GI50 [7]: 14.4 µM | inhibition at 10 µM [7, 43]: 88.9% | GI50 ([8]; HOP-62): 18.9 µM | inhibition at 10 µM ([8]; HOP-62, read-out: percent growth inhibition): 93.7% | GI50 ([9]; HOP-92): 14.1 µM | inhibition at 10 µM ([9]; HOP-92, read-out: percent growth inhibition): 34.6% | GI50 ([10]; NCI-H226): 13.7 µM | inhibition at 10 µM ([10]; NCI-H226, read-out: percent growth inhibition): 138% | GI50 ([11]; NCI-H522): 5 µM | inhibition at 10 µM ([11]; NCI-H522, read-out: percent growth inhibition): 178% | GI50 ([12]; COLO 205): 16 µM | inhibition at 10 µM ([12]; COLO 205, read-out: percent growth inhibition): 150% | GI50 ([13]; HCC 2998): 13.2 µM | inhibition at 10 µM ([13]; HCC 2998, read-out: percent growth inhibition): 199% | GI50 ([14]; HCT-116, HCT-116, five-dose screening): 3.35 µM | inhibition at 10 µM ([14]; HCT-116, read-out: percent growth inhibition): 193% | GI50 ([15]; HCT-15): 4.63 µM | inhibition at 10 µM ([15]; HCT-15, read-out: percent growth inhibition): 140% | GI50 ([16]; KM12): 3.93 µM | inhibition at 10 µM ([16]; KM12, read-out: percent growth inhibition): 158% | GI50 ([17]; SF-268): 15.4 µM | inhibition at 10 µM ([17]; SF-268, read-out: percent growth inhibition): 88.8% | GI50 ([18]; SF-539): 7.37 µM | inhibition at 10 µM ([18]; SF-539, read-out: percent growth inhibition): 181% | GI50 ([19]; SNB-19): 10.1 µM | inhibition at 10 µM ([19]; SNB-19, read-out: percent growth inhibition): 114% | GI50 ([20]; U-251): 3.6 µM | inhibition at 10 µM ([20]; U-251, read-out: percent growth inhibition): 195% | GI50 [21]: 2.96 µM | inhibition at 10 µM [21, 43]: 194% | GI50 [22]: 11 µM | inhibition at 10 µM [22, 43]: 141% | GI50 ([23]; MDA-MB-435): 13.8 µM | inhibition at 10 µM ([23]; MDA-MB-435, read-out: percent growth inhibition): 79.8% | GI50 ([24]; SK-MEL-2): 15.3 µM | inhibition at 10 µM ([24]; SK-MEL-2, read-out: percent growth inhibition): 53.9% | GI50 ([25]; SK-MEL-28): 13.4 µM | inhibition at 10 µM ([25]; SK-MEL-28, read-out: percent growth inhibition): 167% | GI50 ([26]; SK-MEL-5): 10.2 µM | inhibition at 10 µM ([26]; SK-MEL-5, read-out: percent growth inhibition): 183% | GI50 ([27]; IGROV-1): 6.71 µM | inhibition at 10 µM ([27]; IGROV-1, read-out: percent growth inhibition): 119% | GI50 ([28]; OVCAR-3): 4.63 µM | inhibition at 10 µM ([28]; OVCAR-3, read-out: percent growth inhibition): 138% | GI50 ([29]; OVCAR-4): 14.8 µM | inhibition at 10 µM ([29]; OVCAR-4, read-out: percent growth inhibition): 75.5% | GI50 ([30]; OVCAR-5): 12.6 µM | inhibition at 10 µM ([30]; OVCAR-5, read-out: percent growth inhibition): 74% | GI50 ([31]; OVCAR-8): 14.8 µM | inhibition at 10 µM ([31]; OVCAR-8, read-out: percent growth inhibition): 130% | GI50 ([32]; A498): 15 µM | inhibition at 10 µM ([32]; A498, read-out: percent growth inhibition): 3.83% | GI50 ([33]; CAKI-1): 14.8 µM | inhibition at 10 µM ([33]; CAKI-1, read-out: percent growth inhibition): 134% | GI50 ([34]; RXF 393): 11.8 µM | inhibition at 10 µM ([34]; RXF 393, read-out: percent growth inhibition): 190% | GI50 ([35]; PC-3): 12.3 µM | inhibition at 10 µM ([35]; PC-3, read-out: percent growth inhibition): 81.8% | GI50 ([36]; DU-145): 5.03 µM | inhibition at 10 µM ([36]; DU-145, read-out: percent growth inhibition): 84.8% | GI50 ([37]; MCF7): 3.19 µM | inhibition at 10 µM ([37]; MCF7, read-out: percent growth inhibition): 126% | GI50 [38]: 18.9 µM | inhibition at 10 µM [38, 43]: 57.9% | GI50 ([39]; BT-549): 12.1 µM | inhibition at 10 µM ([39]; BT-549, read-out: percent growth inhibition): 119% | GI50 [40]: 13.5 µM | inhibition at 10 µM [40, 43]: 70.2% | GI50 ([41]; MDA-MB-468): 6.27 µM | inhibition at 10 µM ([41]; MDA-MB-468, read-out: percent growth inhibition): 171% | GI50 ([42]; Homo sapiens, 60 cell, read-out: Full panel GI50 mean): 10.3 µM | Full panel Mean GI % ([42]; mean over NCI-60 panel, single dose 10 µM): 120.44%

From article PMC11003488 (Journal of Enzyme Inhibition and Medicinal Chemistry, 2023)
